Assay results from US5770688A, “Method and composition for the treatment of mammalian HIV infection” (GSF-Forschungszentrum fur Umwelt und Gesundheit GmbH, priority 1989, dated 1998).

Assays:
[1] = blood serum levels of melittin after injection; assay type: in vivo, cats
Procedure: During the experiment it was determined that detectable blood serum levels of melittin (Seq. ID NO:1) of about 5 ng/ml could be detected following an injection of melittin equal to […] a few minutes after injection. […] In vitro data has shown that melittin, after this time interval, is found within the cells where it can be detected in tact for more than 48 hours. The LD50 (lethal dose where 50% of the animals perish) for melittin is not known for cats. In the present experiment, both cats M and G were treated twice weekly with subcutaneous injections over a period of eight weeks. During the first three weeks, each cat received increasing dosages of melittin (Seq. ID NO:1) beginning with a 50 mg/kg bodyweight injection, followed by injections of 100 mg/kg, and then escalating to 150, 225, 375 and 500 mg/kg at the sixth injection. Upon reaching this level, the melittin was administered in a constant dosage of 500 mg/kg twice weekly, for the remaining five weeks. […] The quantitative effect of melittin on FIV replication was determined quantitatively by utilizing FIV-PCR employing nested primers from the gag region. Quantification was based upon the determination of amplified product in identical samples which have been amplified after different cycle times. This is best seen by reference to FIG. 47A. Furthermore, each of the cats were clinically investigated in detail. […]

HIV = test: relative infectious nature of culture supernatant, indirect immunoperoxidase staining of LC5 cells; assay type: cell-based
Procedure: Referring more particularly to FIGS. 1-4, melittin (Seq. ID NO:1) and its specified analogues were tested for their effect on HIV-infected T-lymphoma cells. In this regard the following cell lines were employed in the testing: KE37-1 (uninfected) and KE37-1/111S (infected with HTLV-111β). These infected cells were incubated for a period of seven days under test conditions at a temperature of 37° C. and in the presence of 5% CO2. A culture medium of RPMI 1640 (GIBCO) was employed and was further supplemented with 10% fetal calf serum which contained approximately 100 units of penicillin, 100μ of streptomycin, and approximately 0.25μ fungizone (Amphotericin B) per milliliter. […] A first test was conducted for purposes of determining the relative cell concentration as a function of the number of HIV infected cells present by employing an MTT test. The MTT test was carried out in microtiter plates according to T. Mosmann, "Rapid Colorimetric Assay for Cellular Growth and Survival: Application to Proliferation and Cytotoxicity Assays," Journal of Immunological Methods, v. 65 (1983), pp. 55-63. The MTT test was slightly modified: 10 μl of an MTT solution (5 mg/ml MTT dissolved in PBS, sterilized by filtration; MTT is 3-(4,5-Dimethylthiazole-2-yl)-2,5-diphenyltetrazolimbromide) were added to every well. […] The optical density (OD) of the solution was determined at=600 nm. […]

Substance: Gly-Ile-Gly-Ala-Val-Leu-Lys-Val-Leu-Thr-Thr-Gly-Leu-Pro-Ala-Leu-Ile-Ser-Trp-Ile-Lys-Arg-Lys-Arg-Gln-Gln-Amide [melittin]
- disappearance from the serum ([1]; in vivo): disappears quickly from the serum
- detectable blood serum levels ([1]; injection equal to 200 mg/kg, a few minutes after injection): about 5 ng/ml
- ability of the cells to infect (INF%) (HIV; 2.5 μg per ml, FIG. 2): revert substantially back to zero
- supernatant infectivity (HIV; single treatment at cultivation start, subtoxic concentrations, seven days post treatment): supernatant infectivity was reduced
